Measurements: patent US10829718B2, “Detergent composition comprising a carbinol functional trisiloxane” (Dow Silicones Corporation, priority 2016, dated 2020)

Type: physicochemical
Excerpt: The directive essentially states that if a material is classified as a surfactant in must pass certain biodegradation protocols. A surfactant was generally defined as a material capable of: 1) reducing the surface tension of water to ≤45 dynes/cm (or ≤45 mN/m) at a concentration of 0.5 wt % of the material in water; 2) forming spreading or adsorption monolayers at an air/water interface; 3) forming emulsions, microemulsions and/or micelles; and 4) adsorption at a water/solid interface. Surface tension of an aqueous solution, fluid, or mixture can readily be determined by various methods understood in the art. Generally, for stable solutions or mixtures, an equilibrium method such as the Wilhelmy plate method or Du Noüy ring method can be utilized. Alternately, for more dynamic systems, a pendant drop method can be utilized. This technique results in a fresh surface for each measurement. This method is also useful to reduce the potential for insoluble hydrophobic impurities or oils which could impact the surface tension measurement resulting in artificially low surface tension values. An example of such a surfactant assessment/classification is illustrated in the flow diagram of FIG. 3. Referring to the protocol illustrated in FIG. 3, the initial assessment is whether or not a 0.5 wt % mixture of the material being tested is soluble in water. Mixtures were prepared by adding 0.5% of the material to distilled water at 20° C. and mixing with a magnetic stir bar for one hour. If the material is soluble in water, as indicated, for example, by the formation of a clear or slightly hazy mixture, then surface tension (σ) is determined. If σ is >45 mN/m, the material is not classified as a surfactant. If σ is ≤45 mN/m, and micelles are not present, the material is not classified as a surfactant. Conversely, if micelles are present, the material is classified as a surfactant. If the material is not soluble in water, and no emulsion is present (e.g. solid particles or gels are present instead), then the material is not classified as a surfactant. If an emulsion is present (e.g. droplets are present) and the emulsion in stable, then σ is determined. If σ is >45 mN/m, the material is not classified as a surfactant. Conversely, if σ is ≤45 mN/m, the material is classified as a surfactant. If the material is not soluble in water, and an emulsion is present (e.g. droplets are present) and the emulsion is not stable, the emulsion is then centrifuged. The (clear) main phase (or supernatant) of the emulsion is further studied and the a is determined. If σ is >45 mN/m, the material is not classified as a surfactant. Conversely, if σ is ≤45 mN/m, and micelles are not present, the material is not classified as a surfactant. […]

CN(CC(O)COCCC[Si](C)(O[Si](C)(C)C)O[Si](C)(C)C)C[C@H](O)[C@@H](O)[C@H](O)[C@H](O)CO (stereo partly shown) [Example 11, BisH-AGE-NMG]
solubility in water: generally insoluble
stability of the mixture in water: stable
appearance / behaviour of the mixture in water (0.5 wt % mixture in water): formed a hazy mixture
classification as surfactant / non-surfactant according to the protocol/flow diagram (0.5 wt % of the material in distilled water at 20° C., mixed one hour): surfactant
